Measurements taken from US20200085776A1, “Methods of Reducing C-Reactive Protein and/or Treating Cardiovascular Disease” (CARDAX, INC., priority 2018, published 2020).

System: C-reactive protein (CRP)
Test: CRP (hs-CRP) in blood, CHASE clinical study
Format: in vivo, human
Details: Group Z 48 mg BID
Source text: This is a two-part study comprising Part I and Part II. Following screening, Part I consists of a randomized, double-blind, placebo controlled dosing period of up to 12 weeks. The study shall be conducted at one or more study sites in Hawaii. Approximately 360 subjects qualified after completion of screening procedures shall be randomized in a 1:1:1 ratio to one of three treatment groups, per Table 1.
The Part I 12-week double-blind dosing period commences with V2, including randomization and first dose of study product, and continues with study visits at Week 1-2 (V3), Week 4 (V4), Week 8 (V5), and Week 12 (V6). V6 procedures will conclude Part I.
Blood shall be obtained at each visit for CRP. The screening specimen shall be processed at the local lab and reported to the study staff for eligibility determination; CRP samples at V7 and V8 may also be processed locally and reported directly to study staff. Samples for CRP from V2 through V6 may be batched, processed, and reported as specified in the Laboratory Manual.
At each these visits, blood was obtained for measurement of CRP, among other parameters. Table 7A provides a summary of the CRP measurements (mg/L) at each visit and Table 7B provides a summary of the differences of CRP levels between V2 and V6.

[1] = V1 screening, subjects with baseline level greater than 2.0
[2] = V2 baseline pre-dose, all subjects
[3] = V2 baseline pre-dose, subjects not taking a hypertension agent
[4] = V2 baseline pre-dose, subjects not taking any cardiac therapeutic agent
[5] = V2 baseline pre-dose, subjects not taking statins
[6] = V2 baseline pre-dose, subjects taking an anti-diabetic agent
[7] = V2 baseline pre-dose, subjects with CAD
[8] = V2 baseline pre-dose, subjects with DM2, hypertension and hyperlipidemia but not CAD
[9] = V2 baseline pre-dose, subjects with Diabetes Mellitus Type II
[10] = V2 baseline pre-dose, subjects with baseline level greater than 2.0
[11] = V2 baseline pre-dose, subjects with hyperlipidemia
[12] = V3 Week 1-2, subjects with baseline level greater than 2.0
[13] = V4 Week 4, subjects with baseline level greater than 2.0
[14] = V5 Week 8, subjects with baseline level greater than 2.0
[15] = V6 Week 12, subjects not taking a hypertension agent
[16] = V6 Week 12, subjects not taking any cardiac therapeutic agent
[17] = V6 Week 12, subjects not taking statins
[18] = V6 Week 12, subjects taking an anti-diabetic agent

CC1=C(/C=C/C(C)=C/C=C/C(C)=C/C=C/C=C(C)/C=C/C=C(C)/C=C/C2=C(C)C(=O)C(O)CC2(C)C)C(C)(C)CC(O)C1=O (stereo not drawn) [Astaxanthin, astaxanthin]
CRP Max (V1 screening, all subjects): 14.17 mg/L | CRP Mean (SD) (V1 screening, all subjects): 5.12 (3.39) mg/L | CRP Median (V1 screening, all subjects): 4.20 mg/L | CRP Min (V1 screening, all subjects): 2.03 mg/L | CRP Max [1]: 14.17 mg/L | CRP Mean (SD) [1]: 5.65 (3.56) mg/L | CRP Median [1]: 4.94 mg/L | CRP Min [1]: 2.03 mg/L | CRP Max [2]: 8.51 mg/L | CRP Mean (SD) [2]: 4.28 (2.32) mg/L | CRP Median [2]: 4.68 mg/L | CRP Min [2]: 1.27 mg/L | CRP Max [3]: 6.30 mg/L | CRP Mean (SD) [3]: 4.52 (1.86) mg/L | CRP Median [3]: 4.68 mg/L | CRP Min [3]: 2.59 mg/L | CRP Max [4]: 8.04 mg/L | CRP Mean (SD) [4]: 4.55 (2.02) mg/L | CRP Median [4]: 4.68 mg/L | CRP Min [4]: 1.81 mg/L | CRP Max [5]: 8.51 mg/L | CRP Mean (SD) [5]: 4.97 (2.51) mg/L | CRP Median [5]: 4.83 mg/L | CRP Min [5]: 1.83 mg/L | CRP Max [6]: 8.51 mg/L | CRP Mean (SD) [6]: 4.48 (2.24) mg/L | CRP Median [6]: 4.98 mg/L | CRP Min [6]: 1.27 mg/L | CRP Max [7]: 6.68 mg/L | CRP Mean (SD) [7]: 3.49 (2.23) mg/L | CRP Median [7]: 3.12 mg/L | CRP Min [7]: 1.27 mg/L | CRP Max [8]: 8.51 mg/L | CRP Mean (SD) [8]: 5.26 (2.32) mg/L | CRP Median [8]: 5.04 mg/L | CRP Min [8]: 2.59 mg/L | CRP Max [9]: 8.51 mg/L | CRP Mean (SD) [9]: 4.78 (2.37) mg/L | CRP Median [9]: 5.01 mg/L | CRP Min [9]: 1.27 mg/L | CRP Max [10]: 8.51 mg/L | CRP Mean (SD) [10]: 5.25 (1.89) mg/L | CRP Median [10]: 5.17 mg/L | CRP Min [10]: 2.29 mg/L | CRP Max [11]: 8.51 mg/L | CRP Mean (SD) [11]: 3.78 (2.28) mg/L | CRP Median [11]: 3.12 mg/L | CRP Min [11]: 1.27 mg/L | CRP Max (V3 Week 1-2, all subjects): 13.08 mg/L | CRP Mean (SD) (V3 Week 1-2, all subjects): 4.86 (3.09) mg/L | CRP Median (V3 Week 1-2, all subjects): 4.52 mg/L | CRP Min (V3 Week 1-2, all subjects): 1.77 mg/L | CRP Max [12]: 13.08 mg/L | CRP Mean (SD) [12]: 5.62 (3.21) mg/L | CRP Median [12]: 4.88 mg/L | CRP Min [12]: 2.27 mg/L | CRP Max (V4 Week 4, all subjects): 7.81 mg/L | CRP Mean (SD) (V4 Week 4, all subjects): 3.42 (1.84) mg/L | CRP Median (V4 Week 4, all subjects): 3.04 mg/L | CRP Min (V4 Week 4, all subjects): 0.90 mg/L | CRP Max [13]: 7.81 mg/L | CRP Mean (SD) [13]: 3.94 (1.86) mg/L | CRP Median [13]: 3.27 mg/L | CRP Min [13]: 0.90 mg/L | CRP Max (V5 Week 8, all subjects): 9.20 mg/L | CRP Mean (SD) (V5 Week 8, all subjects): 3.49 (2.06) mg/L | CRP Median (V5 Week 8, all subjects): 3.04 mg/L | CRP Min (V5 Week 8, all subjects): 0.91 mg/L | CRP Max [14]: 9.20 mg/L | CRP Mean (SD) [14]: 4.09 (2.07) mg/L | CRP Median [14]: 4.17 mg/L | CRP Min [14]: 1.15 mg/L | CRP Max (V6 Week 12, all subjects): 8.84 mg/L | CRP Mean (SD) (V6 Week 12, all subjects): 3.41 (2.24) mg/L | CRP Median (V6 Week 12, all subjects): 2.53 mg/L | CRP Min (V6 Week 12, all subjects): 0.61 mg/L | CRP Max [15]: 4.30 mg/L | CRP Mean (SD) [15]: 2.94 (1.20) mg/L | CRP Median [15]: 2.48 mg/L | CRP Min [15]: 2.04 mg/L | CRP Max [16]: 8.84 mg/L | CRP Mean (SD) [16]: 3.13 (2.14) mg/L | CRP Median [16]: 2.53 mg/L | CRP Min [16]: 0.61 mg/L | CRP Max [17]: 8.84 mg/L | CRP Mean (SD) [17]: 4.16 (2.57) mg/L | CRP Median [17]: 3.24 mg/L | CRP Min [17]: 1.88 mg/L | CRP Max [18]: 7.87 mg/L | CRP Mean (SD) [18]: 3.31 (2.28) mg/L | CRP Median [18]: 2.53 mg/L | CRP Min [18]: 0.61 mg/L | CRP Max (V6 Week 12, subjects with CAD): 2.31 mg/L | CRP Mean (SD) (V6 Week 12, subjects with CAD): 1.57 (0.72) mg/L | CRP Median (V6 Week 12, subjects with CAD): 1.88 mg/L | CRP Min (V6 Week 12, subjects with CAD): 0.61 mg/L
